Data on eleven compounds can be found in ChEMBL document CHEMBL4673187, “Recent developments of small molecule gamma-secretase modulators for Alzheimer''s disease” (RSC Med Chem, 2020).

In general, logD refers to lipophilicity at a set pH, counting ionised and neutral species. A word on the IC50: it is the concentration that inhibits the measured activity by half. In general, EC50 refers to the concentration giving half of the maximal effect. What is called Cmax is the highest concentration seen after dosing.

Each structure is given as a SMILES string. Some results are limits rather than exact numbers.

Data set [1] is described as follows: Lipophilicity, logD of the compound. Type of data set: physicochemical. The note with it: octanol/water.
Data set [2] can be described thus: Modulation of gamma secretase in Wistar rat fetal brain-derived neuronal cell incubated for 3 days by ELISA. To be noted: 72 h.
A short description of data set [3]: In vivo modulation of gamma secretase in C57BL/6 mouse assessed as reduction in amyloid beta42 level at 30 mg/kg, po measured at 3 hrs relative to control. Type of data set: functional. Set-up: scale not given: the % may be the effect or the level left.
The nature of data set [4]: In vivo modulation of gamma secretase in CF1 mouse assessed as reduction in plasma amyloid beta40 level at 100 mg/kg, po measured after 4 hrs by ELISA relative to control. Type of data set: functional. Set-up: scale not given: the % may be the effect or the level left. Background: In an ELISA, binding on a coated surface is turned into a signal by an enzyme label.
The nature of data set [5]: In vivo modulation of gamma secretase in CF1 mouse assessed as reduction in brain amyloid beta40 level at 100 mg/kg, po measured after 4 hrs by ELISA relative to control. Type of data set: functional. Set-up: scale not given: the % may be the effect or the level left.
Data set [6] is described as follows: Modulation of gamma-secretase in CHO cells expressing APP V717F assessed as reduction in amyloid beta42 level. To be noted: Cricetulus griseus. Type of data set: cell-based.
The nature of data set [7]: Modulation of gamma-secretase in CHO cells expressing APP V717F assessed as increase in amyloid beta38 level. Type of data set: cell-based. The note with it: Cricetulus griseus.
Data set [8] in a line: Maximum concentration of drug in po dosed CF1 mouse brain and measured at 4 hrs by liquid chromatography and tandem mass spectrometry. Type of data set: ADME, organism-based. Set-up: route oral, time 4 hrs.
The nature of data set [9]: In vivo modulation of gamma secretase in CF1 mouse assessed as increase in brain amyloid beta38 level at 100 mg/kg, po measured after 4 hrs by ELISA relative to control. Type of data set: functional.
Data set [10] is described as follows: Ratio of drug level in CF1 mouse brain to plasma at 3 to 100 mg/kg, po measured after 4 hrs by liquid chromatography and tandem mass spectrometry. Type of data set: ADME, organism-based. To be noted: dose 3-100 mg/kg, read-out: BPR.
For data set [11], the target named is Gamma-secretase. The experiment in a line: Modulation of gamma-secretase in human H4 cells expressing human wild type APP751 assessed as reduction in amyloid beta42 level incubated for 17 hrs by ELISA. Type of data set: cell-based.
The nature of data set [12]: In vivo modulation of gamma secretase in transgenic Tg2576 mouse assessed as reduction in soluble amyloid beta42 level at 60 mg/kg, po administered once daily for 65 days by ELISA relative to control. Type of data set: functional. Set-up: scale not given: the % may be the effect or the level left. The note with it: time 65 day.
The nature of data set [13]: In vivo modulation of gamma secretase in CF1 mouse assessed as increase in amyloid beta38 level at 10 mg/kg, po administered as single dose measured after 16 hrs by ELISA relative to control. Type of data set: functional.
For data set [14], the target named is Gamma-secretase. Put plainly: Modulation of gamma-secretase in human H4 cells expressing human wild type APP751 assessed as increase in amyloid beta38 level incubated for 17 hrs by ELISA. Type of data set: cell-based.
Data set [15] is described as follows: In vivo modulation of gamma secretase in CF1 mouse assessed as reduction in brain amyloid beta42 level at 100 mg/kg, po measured after 4 hrs by ELISA relative to control. Type of data set: functional. Set-up: scale not given: the % may be the effect or the level left.
Data set [16] is described as follows: In vivo modulation of gamma secretase in transgenic Tg2576 mouse assessed as reduction in insoluble amyloid beta42 level at 60 mg/kg, po administered once daily for 65 days by ELISA relative to control. The note with it: time 65 day. Set-up: scale not given: the % may be the effect or the level left. Type of data set: functional.
A short description of data set [17]: In vivo modulation of gamma secretase in CF1 mouse assessed as increase in plasma amyloid beta38 level at 100 mg/kg, po measured after 4 hrs by ELISA relative to control. Type of data set: functional.
The nature of data set [18]: In vivo modulation of gamma secretase in CF1 mouse assessed as reduction in amyloid beta42 level at 10 mg/kg, po administered as single dose measured after 4 hrs by ELISA relative to control. Type of data set: functional. Set-up: scale not given: the % may be the effect or the level left.
The nature of data set [19]: In vivo modulation of gamma secretase in CF1 mouse assessed as reduction in plasma amyloid beta42 level at 100 mg/kg, po measured after 4 hrs by ELISA relative to control. Type of data set: functional. Set-up: scale not given: the % may be the effect or the level left.
Data set [20] is described as follows: In vivo modulation of gamma secretase in transgenic Tg2576 C57BL/6 mouse assessed as reduction in amyloid beta42 level at 30 mg/kg, po administered as single dose measured after 4 hrs by ELISA relative to control. Type of data set: functional. Set-up: scale not given: the % may be the effect or the level left.
A short description of data set [21]: In vivo modulation of gamma secretase in transgenic Tg2576 C57BL/6 mouse assessed as reduction in amyloid beta42 level at 10 mg/kg, po administered as single dose measured after 4 hrs by ELISA relative to control. Type of data set: functional. Set-up: scale not given: the % may be the effect or the level left.
In data set [22] the target is Gamma-secretase. Put plainly: Modulation of gamma-secretase in human H4 cells expressing human APP assessed as reduction in amyloid beta42 level incubated for 22 hrs. Type of data set: cell-based.
Data set [23] in a line: Inhibition of notch signalling (unknown origin). Set-up: species or system Homo sapiens.
Data set [24] is described as follows: In vivo modulation of gamma secretase in C57BL/6 mouse assessed as reduction in amyloid beta42 level at 10 mg/kg, po measured at 3 hrs relative to control. Set-up: scale not given: the % may be the effect or the level left. Type of data set: functional.

Take `COc1cc(-c2nnc3n2CCCC32OCc3c(Cl)cccc3N(CC(F)(F)F)C2=O)ccc1-c1cnc(C)o1` (stereo not given): the pH-dependent lipophilicity (logD) in [1] turned out to be 2.8.

Consider `COc1cc(/C=C2\CCCN([C@@H](C)c3ccc(F)cc3)C2=O)ccc1-n1cnc(C)c1`, for which inhibition in [2] was half-maximal at 93 nM (IC50).

As for `COc1cc(-c2nnc3n2CCCC3(Cc2ccc(F)c(F)c2)C(=O)NCC(F)(F)F)ccc1-c1cnc(C)o1` (stereo not given), the logD in data set [1] stood at 3. In addition, the Activity in data set [3] turned out to be 4%.

In [1], `COc1cc(-c2nnc3n2CCC[C@@]3(Oc2cc(F)c(F)c(F)c2)C(C)(C)O)ccc1-c1cnc(C)o1` yielded a logD of 3.2.

In data set [1], `COc1cc(-c2nnc3n2CCCC3c2ccc(Cl)c(Cl)c2)ccc1-c1cnc(C)o1` (stereo not given) came in with a log distribution coefficient (logD) of 3.2.

The compound `COc1cc(-c2nnc3n2CCCC32OCc3c(cccc3C(F)(F)F)N(CC(F)(F)F)C2=O)ccc1-c1cnc(C)o1` (stereo not given) displayed a log distribution coefficient (logD) in data set [1] of 2.9.

For `CC1CCN([C@H](c2ccc(F)cc2)c2ccc([C@@H](C)C(=O)O)cc2-c2ccc(C(F)(F)F)cc2)CC1`, the Activity is on record as 25% in data set [4]; 16% in data set [5]; 98% in data set [9]; 50% in data set [12]; 50% in data set [13]; 60% in [15]. Also, the Activity stood at 80% in data set [16], 82% in data set [17], 40% in [18] and 45% in data set [19]. The IC50 came out at 170 nM in data set [6] and 64 nM in data set [11]. In addition, the results for the EC50 in data set [7] and in [14] were 150 nM and 146 nM, respectively. In [8], this compound yielded a Cmax of 7.5 µM. Also, the Kp at 4 h in data set [10] came to 0.8.

Consider `O=C(O)[C@H](CC1CCC1)c1cc(Cl)c(OCC(F)(F)F)c(-c2ccc(C(F)(F)F)cc2)c1`, for which the Activity in [20] was 38%; in data set [21], 22%.

As for `Cc1nsc(N2CCC(Nc3nc4c(-c5ccc(F)c(F)c5F)cccn4n3)C(F)(F)C2)n1` (stereo not given), the IC50 in data set [22] came to 143 nM.

`COc1cc(-c2nnc3n2CCC[C@]3(Oc2cc(F)c(F)c(F)c2)C(C)(C)O)ccc1-c1cnc(C)o1`: in data set [1], the log distribution coefficient (logD) came out at 3.2. The IC50 in [23] is no less than 10000 nM. Also, in data set [24], the Activity is given as 44%.

On to `COc1cc(-c2nnc3n2CCCC3(Oc2ccc(F)c(Cl)c2)C(C)(C)O)ccc1-c1cnc(C)o1` (stereo not given), for which the logD in data set [1] was 3.2.
